Test results: ChEMBL document CHEMBL1201862, “PubChem BioAssay data set” (2004)
“And” between values parts separate entries of the source, which are not always exact repeats. Identical values can stand only once.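 Growth conditions: 96-well plates. Treatment: test compound, 48 hours, 5 concentrations. Analysis: linear interpolation between bracketing concentrations; unreached endpoints set to highest concentration. Abbreviation: GI50, concentration required for 50% inhibition of growth.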 The source made the active and inactive calls. Cut-off read from the data, not from the text of the source: active = GI50 up to about 1.1 µM and inactive = higher.

Columns and labels:
Assay in all cases: DTP human tumour cell line panel, 48 h
EKVX = tested on: EKVX
SF-539 = tested on: SF-539
M14 = tested on: M14
SW-620 = tested on: SW-620
786-0 = tested on: 786-0
MOLT-4 = tested on: MOLT-4
HCT-15 = tested on: HCT-15
COLO 205 = tested on: COLO 205
IGROV-1 = tested on: IGROV-1
RXF 393 = tested on: RXF 393
MDA-MB-231 = tested on: MDA-MB-231
SF-268 = tested on: SF-268
MCF7 = tested on: MCF7
HT-29 = tested on: HT-29
HCT-116 = tested on: HCT-116
OVCAR-3 = tested on: OVCAR-3
UO-31 = tested on: UO-31
HOP-92 = tested on: HOP-92
U-251 = tested on: U-251
BT-549 = tested on: BT-549
CCRF-CEM = tested on: CCRF-CEM
SNB-75 = tested on: SNB-75
UACC-257 = tested on: UACC-257
LOX IMVI = tested on: LOX IMVI
HCC 2998 = tested on: HCC 2998
NCI-H23 = tested on: NCI-H23
K562 = tested on: K562
RPMI-8226 = tested on: RPMI-8226
SK-OV-3 = tested on: SK-OV-3
PC-3 = tested on: PC-3
ACHN = tested on: ACHN
NCI/ADR-RES = tested on: NCI/ADR-RES
A549 = tested on: A549
KM12 = tested on: KM12
SN12C = tested on: SN12C
MDA-N = tested on: MDA-N
OVCAR-5 = tested on: OVCAR-5
SK-MEL-2 = tested on: SK-MEL-2
SK-MEL-5 = tested on: SK-MEL-5
SK-MEL-28 = tested on: SK-MEL-28
SNB-19 = tested on: SNB-19
UACC-62 = tested on: UACC-62
TK-10 = tested on: TK-10
DU-145 = tested on: DU-145
SF-295 = tested on: SF-295
OVCAR-4 = tested on: OVCAR-4
OVCAR-8 = tested on: OVCAR-8
HOP-62 = tested on: HOP-62
NCI-H522 = tested on: NCI-H522
MDA-MB-435 = tested on: MDA-MB-435
A498 = tested on: A498
Hs-578T = tested on: Hs-578T
HL-60 = tested on: HL-60
Malme-3M = tested on: Malme-3M
NCI-H226 = tested on: NCI-H226
CAKI-1 = tested on: CAKI-1
NCI-H460 = tested on: NCI-H460
SR = tested on: SR

Measured: GI50

CCOC(=O)N/N=C(/N)Cc1ccc(Cl)cc1
inactive: EKVX > 100 µM | SF-539 > 100 µM | M14 > 100 µM | SW-620 > 100 µM | 786-0 > 100 µM | MOLT-4 > 100 µM | COLO 205 > 100 µM | IGROV-1 > 100 µM | RXF 393 > 100 µM | MDA-MB-231 > 100 µM | SF-268 > 100 µM | MCF7 > 100 µM | HT-29 > 100 µM | HCT-116 > 100 µM | OVCAR-3 > 100 µM | UO-31 > 100 µM | HOP-92 > 100 µM | U-251 > 100 µM | BT-549 > 100 µM | CCRF-CEM > 100 µM | SNB-75 > 100 µM | UACC-257 > 100 µM | LOX IMVI > 100 µM | HCC 2998 > 100 µM | NCI-H23 > 100 µM | K562 > 100 µM | RPMI-8226 > 100 µM | SK-OV-3 > 100 µM | PC-3 > 100 µM | ACHN > 100 µM | NCI/ADR-RES > 100 µM | A549 > 100 µM | KM12 > 100 µM | SN12C > 100 µM | MDA-N > 100 µM | OVCAR-5 > 100 µM | SK-MEL-2 > 100 µM | SK-MEL-5 > 100 µM | SK-MEL-28 > 100 µM | SNB-19 > 100 µM | UACC-62 > 100 µM | TK-10 > 100 µM | DU-145 > 100 µM | SF-295 > 100 µM | OVCAR-4 > 100 µM | OVCAR-8 > 100 µM | HOP-62 > 100 µM | NCI-H522 > 100 µM | MDA-MB-435 > 100 µM
> 100 µM: HCT-15

O=C1C=C2CC[C@H]3[C@@H]4CC[C@H](OC(=O)c5cccc6cc7ccccc7nc56)[C@H]4CC[C@@H]3[C@H]2CC1
inactive: EKVX 63.1 µM | SF-539 > 100 µM | M14 > 100 µM | A498 > 100 µM | SW-620 > 100 µM | 786-0 > 100 µM | Hs-578T > 100 µM | MOLT-4 54.3 µM | COLO 205 > 100 µM | IGROV-1 > 100 µM | MDA-MB-231 50.1 µM | SF-268 > 100 µM | MCF7 > 100 µM | HL-60 > 100 µM | HT-29 > 100 µM | HCT-116 > 100 µM | OVCAR-3 39.5 µM | UO-31 79.6 µM | U-251 99.3 µM | BT-549 > 100 µM | CCRF-CEM 24.7 µM | SNB-75 > 100 µM | UACC-257 > 100 µM | Malme-3M > 100 µM | LOX IMVI 15.9 µM | NCI-H23 > 100 µM | K562 40.1 µM | RPMI-8226 93.3 µM | SK-OV-3 > 100 µM | PC-3 > 100 µM | ACHN > 100 µM | NCI/ADR-RES > 100 µM | A549 > 100 µM | KM12 > 100 µM | SN12C > 100 µM | MDA-N > 100 µM | OVCAR-5 > 100 µM | SK-MEL-2 > 100 µM | SK-MEL-5 > 100 µM | SK-MEL-28 > 100 µM | NCI-H226 > 100 µM | SNB-19 > 100 µM | UACC-62 > 100 µM | TK-10 > 100 µM | DU-145 > 100 µM | SF-295 > 100 µM | OVCAR-4 > 100 µM | OVCAR-8 > 100 µM | HOP-62 > 100 µM | NCI-H522 25.5 µM | MDA-MB-435 > 100 µM
> 100 µM: HCT-15

COC1=CC(c2ccc(Br)[nH]2)=N/C1=C/NCC(C)C
1.3 µM: HCT-15
active: EKVX 0.368 µM | MCF7 1.09 µM | CCRF-CEM 0.581 µM | RPMI-8226 0.412 µM | DU-145 0.475 µM
inactive: SF-539 2.06 µM | M14 1.98 µM | A498 2.23 µM | 786-0 1.55 µM | Hs-578T 2.29 µM | MOLT-4 1.33 µM | COLO 205 1.24 µM | IGROV-1 2.37 µM | MDA-MB-231 2.02 µM | SF-268 2.26 µM | HL-60 1.39 µM | HT-29 1.24 µM | HCT-116 1.44 µM | OVCAR-3 1.62 µM | UO-31 2.06 µM | HOP-92 1.32 µM | U-251 1.51 µM | SNB-75 5.18 µM | UACC-257 2.07 µM | Malme-3M 1.75 µM | HCC 2998 1.34 µM | NCI-H23 1.58 µM | K562 2.65 µM | CAKI-1 2.36 µM | SK-OV-3 2.53 µM | PC-3 1.47 µM | ACHN 1.21 µM | A549 1.46 µM | NCI-H460 1.62 µM | KM12 1.26 µM | SN12C 2.21 µM | OVCAR-5 2.11 µM | SK-MEL-2 1.5 µM | SK-MEL-5 1.53 µM | SK-MEL-28 2.75 µM | SNB-19 3.6 µM | UACC-62 1.98 µM | TK-10 2.55 µM | SF-295 1.6 µM | OVCAR-4 1.86 µM | OVCAR-8 2.01 µM | HOP-62 1.47 µM | NCI-H522 1.49 µM | MDA-MB-435 1.93 µM

COc1cc(C2SCC(=O)N2c2ccc(Cl)cc2)cc(OC)c1OC (stereo unspecified)
active: M14 0.266 µM | LOX IMVI 1.03 µM | K562 0.11 µM | OVCAR-5 0.252 µM | SR 1.12 µM | UACC-62 < 0.0205 µM | MDA-MB-435 0.635 µM
inactive: EKVX 3.15 µM | SF-539 > 100 µM | A498 > 100 µM | SW-620 19 µM | 786-0 > 58.5 µM | Hs-578T > 100 µM | MOLT-4 1.69 µM | COLO 205 1.94 µM | IGROV-1 20.7 µM | RXF 393 19.1 µM | MDA-MB-231 > 100 µM | SF-268 97.5 µM | MCF7 5.22 µM | HL-60 2.46 µM | HCT-116 8.11 µM | OVCAR-3 22.2 µM | UO-31 1.19 µM | HOP-92 > 49.1 µM | U-251 > 79.4 µM | BT-549 20.2 µM | CCRF-CEM 1.99 µM | SNB-75 > 100 µM | UACC-257 22.6 µM | Malme-3M > 100 µM | HCC 2998 > 30.2 µM | NCI-H23 26.2 µM | CAKI-1 10.4 µM | RPMI-8226 8.93 µM | SK-OV-3 > 94.6 µM | PC-3 46.2 µM | NCI/ADR-RES 20.4 µM | A549 > 100 µM | NCI-H460 3.7 µM | KM12 3.38 µM | SN12C > 39.5 µM | MDA-N 3.05 µM | SK-MEL-2 8.51 µM | SK-MEL-5 1.26 µM | SK-MEL-28 > 72.9 µM | NCI-H226 > 49.1 µM | SNB-19 > 100 µM | TK-10 > 100 µM | SF-295 4.95 µM | OVCAR-4 5.81 µM | OVCAR-8 > 45.4 µM | HOP-62 21.1 µM | NCI-H522 31.8 µM
13.9 µM: HCT-15

CN(C)CC1CCCCCCCCCCC1=O (stereo unspecified)
inactive: RXF 393 > 10 µM | MDA-MB-231 > 10 µM | UACC-257 > 10 µM | HCC 2998 > 10 µM | SF-295 > 10 µM | OVCAR-8 > 10 µM

CC1OC(OC2C(OC(=O)[C@]34CCC(C)(C)C[C@H]3C3=CC[C@@H]5[C@@]6(C)CC[C@H](OC7OC(C(=O)O)C(O)C(OC8OCC(O)C(O)C8O)C7O)C(C)(C)[C@@H]6CC[C@@]5(C)[C@]3(C)CC4)OCC(O)C2O)C(O)C(OC2OCC(O)C(O)C2O)C1OC1OCC(O)C(OC2OCC(O)C(O)C2O)C1O (stereo partly specified)
inactive: EKVX 17.4 µM and 9.31 µM | SF-539 20.5 µM | A498 2.66 µM and 2.28 µM | 786-0 12.1 µM and 21.7 µM | Hs-578T 26.6 µM and 18.4 µM | MOLT-4 9.91 µM and 17.9 µM | RXF 393 15 µM and 18.2 µM | MDA-MB-231 3.3 µM and 3.16 µM | SF-268 16.7 µM and 8.51 µM | MCF7 7.93 µM and 5.35 µM | CCRF-CEM 14.6 µM and 13.2 µM | SNB-75 12.2 µM and 14.1 µM | LOX IMVI 10.8 µM and 13.4 µM | HCC 2998 2 µM and 3.89 µM | NCI-H23 7.06 µM and 13.9 µM | CAKI-1 5.93 µM and 10.7 µM | PC-3 9.68 µM and 11.1 µM | ACHN 7.28 µM and 12.3 µM | NCI/ADR-RES 7.55 µM and 14.4 µM | SK-MEL-5 14.5 µM and 18.4 µM | SNB-19 9.86 µM and 14.2 µM | UACC-62 16.4 µM and 28.8 µM | TK-10 11.2 µM | DU-145 15 µM and 28.2 µM | OVCAR-4 7.96 µM and 14.3 µM | OVCAR-8 13.2 µM and 17.5 µM | HOP-62 14.9 µM and 16.9 µM
18.6 µM and 15.3 µM: HCT-15
